Data as given in publication PMC11239005, “Preclinical studies of RA475, a guanidine-substituted spirocyclic candidate RPN13/ADRM1 inhibitor for treatment of ovarian cancer” (PLOS ONE, 2024).

Tests used:
[1] = cited from earlier work
[2] = tested on: high molecular weight polyubiquitinated proteins in OVCAR3 cells; assay: Anti-ubiquitin immunoblot, OVCAR3; type: cell-based, human; details: Up284 0.5 μM, bortezomib 0.25 μM, ixazomib 0.25 μM, RA475 0.5 or 1 μM
Excerpt: Cell lysate prepared in MPER (Pierce) from each sample was normalized by total protein concentration using the bicinchoninic acid assay and bovine serum albumin standards. Normalized samples were subjected to SDS-PAGE, transferred to PVDF membranes and analyzed by Western blot using antibodies specific to ubiquitin (P4D1, sc-8017, Santa Cruz), PARP (#9542, […]), actin (#66009, Protein Tech Group), Tubulin(#66031, Protein Tech Group), ADRM1/RPN13 (D9Z1U, #12019, Cell Signaling), USP14 (Cell Signal, # 8159), Annexin V (#559763, BD Pharmingen), and for secondary antibodies we utilized either horseradish peroxidase (HRP)-linked anti-mouse IgG or anti-rabbit IgG (GE Healthcare UK Ltd), HRP-linked streptavidin (N100, Thermo Fisher) at the recommended dilution (1:5000).
Accumulation of high molecular weight polyubiquitinated proteins (polyUb) is a classical phenomenon of proteasome function inhibition due to the stabilization of its substrate.
Fig 3 Impact of RA475 on proteasome function. […] Actin was used as loading control. […] C) 4T1 and HCC1806 cells stably expressing 4UbFL were treated with compounds at indicated doses for 4 h and imaged by IVIS200 after the addition of luciferin substrate (50 μL, 7mg/mL in PBS). D) Sub-confluent cultures of ES2 cells stably expressing 4UbFL were seeded at 10,000 cells/well in 96-well microtiter plates. At 18 h post transfection, cells were treated with compounds or vehicle (DMSO) at the doses indicated. After a 4 h incubation, the cells were lysed and the luciferase activity in each cell lysate was determined with a luciferase assay kit (Promega) according to the manufacturer’s instructions. Bioluminescence was measured by using a luminometer (Glomax Multidetection system, Promega) E) A patch was shaved of hair on one leg of CD-1 mice, and 10 μg 4UbFL plasmid in 20 μL of PBS was injected into the quadriceps femoralis muscle followed immediately by injection of the 2 Needle Array to 5 mm depth encompassing the injection site and square wave electroporation (ElectroSquarePorator 833, BTX-2 Needle array 5mm gap, Harvard apparatus) delivered as eight pulses at 106V for 20 ms with 200 ms intervals. One day post electroporation, mice were anesthetized with isoflurane, injected IP with luciferin (0.3 mg in 100 μL water) and optical imaging was performed to determine basal level luciferase expression. Images were acquired for 10 min with a Xenogen IVIS 200 (Caliper, Hopkinton, MA). Equally sized areas were analyzed using Living Image 2.20 software. Mice were imaged weekly during treatment. […]

[3] = biological target: T1, RPN13 (Homo sapiens, UniProt Q16186); assay: Up284B competition labelling in ES2 and SKOV3 cell lysate; type: binding; details: titrated RA475, bortezomib 1 μM, Up284B 5 μM
T1 construct: performed the labeling assay after treating ovarian cancer cell lysates (ES2 and SKOV3) in the presence of titrated doses of RA475; endogenous in cells; host or cells: ES2 and SKOV3 ovarian cancer cell lysates
Protocol: Clarified cell lysate in MPER buffer (Pierce) was pretreated with streptavidin-coated magnetic beads for 45 min at 4°C to deplete non-specific biotinylated proteins in the cell lysate. […] Next, the samples were mixed with Laemmli sample buffer (BioRad) and boiled for 5 min. The proteins were separated using a 4–15% Bio-Rad Mini-PROTEAN SDS-PAGE gel (1 h at 100 V), and transferred to PVDF membrane overnight at 4°C (24 V). The membrane was blocked with 5% (w/v) BSA in phosphate buffered saline containing 0.1% (v/v) Tween 20 (PBST) for 1 h at RT, and washed for 20 min (3X with PBST). Then the membrane was probed with HRP-streptavidin (1:10,000 in PBST) for 1 h at RT, washed for 30 min (3X with PBST), and developed using HyGLO chemiluminescent detection reagent (Denville) and visualized using a Biorad Chemidoc imager.
Fig 2 RA475 binds to RPN13 and induces rapid apoptosis. […] C, D) RA475 competition labelling experiment. C) ES2 D) SKOV3 clarified cell lysate (40 μg/sample) in MPER buffer was pretreated with streptavidin-coated magnetic beads for 45 min at 4°C to deplete non-specific biotinylated proteins in the cell lysate. […] Next, the samples were mixed with Laemmli sample buffer (BioRad) and boiled for 5 min. The proteins were separated using a 4–15% Bio-Rad Mini-PROTEAN SDS-PAGE gel (1 h at 100 V), and transferred to PVDF membrane overnight at 4°C (24 V). […]

T1 sequence (Q16186 whole entry): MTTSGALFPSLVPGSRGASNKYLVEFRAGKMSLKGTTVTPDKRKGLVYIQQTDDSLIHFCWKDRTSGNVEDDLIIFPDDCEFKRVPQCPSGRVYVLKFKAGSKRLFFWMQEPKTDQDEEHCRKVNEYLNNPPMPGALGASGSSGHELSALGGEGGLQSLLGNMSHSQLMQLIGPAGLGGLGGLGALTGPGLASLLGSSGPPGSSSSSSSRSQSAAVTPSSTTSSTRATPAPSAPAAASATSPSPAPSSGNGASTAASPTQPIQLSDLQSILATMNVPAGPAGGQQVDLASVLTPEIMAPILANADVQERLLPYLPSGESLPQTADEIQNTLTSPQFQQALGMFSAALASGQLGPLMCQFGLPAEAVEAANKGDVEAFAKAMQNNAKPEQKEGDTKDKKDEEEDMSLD

competition with Up284B for binding to RPN13 [3]: no impact
Structure (SMILES): CC(C)C[C@H](NC(=O)[C@H](Cc1ccccc1)NC(=O)c1cnccn1)B(O)O [bortezomib]
concentration in human cerebrospinal fluid and murine brain tissue, % of serum concentrations [1]: 5–7%
forms of polyUb induced [2]: only induced the smaller poly Ub forms, typically <250kDa
